In patent US9834542B2, “LXR modulators” (BRISTOL-MYERS SQUIBB COMPANY, priority 2013, dated 2017) one finds EC50 and Emax data, which are given here for 17 compounds.

The structures appear in SMILES notation. pEC50: −log10 of the molar value.

The target of the test is T1, LXRβ (Homo sapiens, UniProt P55055).
T1 construct: Co-transfection expression plasmids, comprising full-length LXRα (pCMX-h LXRα[…] or LXRβ (pCMX-hLXRβ)); expressed in transfected cells; host or cells: CV-1 African Green Monkey Kidney Cells
T1 sequence (P55055 1-460): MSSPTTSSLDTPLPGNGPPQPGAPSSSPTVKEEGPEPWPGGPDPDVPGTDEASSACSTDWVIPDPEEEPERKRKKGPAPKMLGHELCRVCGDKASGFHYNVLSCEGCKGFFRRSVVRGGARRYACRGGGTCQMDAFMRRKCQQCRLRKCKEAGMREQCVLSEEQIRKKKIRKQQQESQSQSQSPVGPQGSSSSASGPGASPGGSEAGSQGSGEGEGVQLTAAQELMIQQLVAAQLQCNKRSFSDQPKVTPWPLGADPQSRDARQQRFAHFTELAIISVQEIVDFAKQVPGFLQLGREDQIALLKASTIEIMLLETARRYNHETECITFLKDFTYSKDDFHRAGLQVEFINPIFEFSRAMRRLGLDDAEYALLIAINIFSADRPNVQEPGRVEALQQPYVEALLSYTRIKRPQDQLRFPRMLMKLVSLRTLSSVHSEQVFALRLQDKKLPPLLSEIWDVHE
T1 sequence (P19793 1-462 partner): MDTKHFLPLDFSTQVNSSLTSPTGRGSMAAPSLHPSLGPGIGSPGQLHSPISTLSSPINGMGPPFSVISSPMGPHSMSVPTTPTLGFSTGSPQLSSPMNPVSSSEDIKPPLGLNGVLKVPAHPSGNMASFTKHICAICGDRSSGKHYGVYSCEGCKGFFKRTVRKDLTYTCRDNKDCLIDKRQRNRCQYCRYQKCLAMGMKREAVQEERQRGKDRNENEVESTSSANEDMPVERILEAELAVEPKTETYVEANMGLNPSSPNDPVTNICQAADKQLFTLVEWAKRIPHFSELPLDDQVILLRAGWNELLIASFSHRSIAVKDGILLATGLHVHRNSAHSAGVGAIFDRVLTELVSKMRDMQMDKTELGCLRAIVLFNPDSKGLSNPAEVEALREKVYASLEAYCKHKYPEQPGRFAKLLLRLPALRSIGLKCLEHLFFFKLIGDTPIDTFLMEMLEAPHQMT
The test can be described thus: Co-transfection assay (LXRE luciferase reporter), LXRβ. The format is cell-based. Conditions: for pEC50: CV-1 cells transfected with pCMX-hLXRβ and LXREx1-Tk-Luciferase, 20 hours incubation; for Emax: LXRβ co-transfection, relative to high control 1-(2,4-difluorobenzyl)-2-oxo-6-(4-phenoxyphenyl)-4-(trifluoromethyl)-1,2-dihydropyridine-3-carbonitrile, read-out: % Efficacy. Summed up: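 CV-1 cells transiently co-transfected with full-length human LXRβ expression plasmid, LXREx1-Tk-luciferase reporter and β-galactosidase control, then exposed to compound for 20 h at 37 °C. Luciferase luminescence read; EC50 from 11-point, ½-log dose–response fit, efficacy relative to high-control agonist maximum.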

On to `Cc1nc(Cl)cn1-c1ccc(-c2cc(F)c(CO)c(S(C)(=O)=O)c2)cc1-n1nncc1-c1ccc(Cl)cc1` [Example 148, [4′-(4-chloro-2-methyl-1H-imidazol-1-yl)-3′-[5-(4-chlorophenyl)-1H-1,2,3-triazol-1-yl]-3-fluoro-5-(methylsulfonyl)biphenyl-4-yl]methanol], for which the pEC50 is 6.35 and the Emax stood at 42%.

As to `Cc1nc(Cl)cn1-c1ccc(-c2cccc(S(C)(=O)=O)c2)cc1-n1nncc1-c1ccc(OC(F)(F)F)cc1` [Example 149, 1-[4-(4-chloro-2-methyl-1H-imidazol-1-yl)-3′-(methylsulfonyl)biphenyl-3-yl]-5-{4-[(trifluoromethyl)oxy]phenyl}-1H-1,2,3-triazole], the pEC50 is 6.35 and the Emax worked out at 75%.

Take `Cc1nc(Cl)cn1-c1ccc(-c2cccc(S(C)(=O)=O)c2)cc1-n1nncc1-c1ccc(Cl)cc1` [Example 150, 1-[4-(4-chloro-2-methyl-1H-imidazol-1-yl)-3′-(methylsulfonyl)biphenyl-3-yl]-5-(4-chlorophenyl)-1H-1,2,3-triazole]: the pEC50 is 5.89 and the Emax was found to be 56%.

As to `Cc1nc(Cl)c(Cl)n1-c1ccc(-c2cccc(S(C)(=O)=O)c2)cc1-n1nncc1-c1ccc(OC(F)(F)F)cc1` [Example 151, 1-[4-(4,5-dichloro-2-methyl-1H-imidazol-1-yl)-3′-(methylsulfonyl)biphenyl-3-yl]-5-{4-[(trifluoromethyl)oxy]phenyl}-1H-1,2,3-triazole], the pEC50 is 6.67 and the Emax was 148%.

In the case of `Cc1nc(C(=O)NC(C)(C)C)cn1-c1ccc(-c2cccc(S(C)(=O)=O)c2)cc1-n1nncc1-c1ccc(OC(F)(F)F)cc1` [Example 152, N-(1,1-dimethylethyl)-2-methyl-1-[3′-(methylsulfonyl)-3-(5-{4-[(trifluoromethyl)oxy]phenyl}-1H-1,2,3-triazol-1-yl)biphenyl-4-yl]-1H-imidazole-4-carboxamide], the pEC50 was 5.91 and the Emax worked out at 49%.

As to `CNS(=O)(=O)c1cccc(-c2ccc(-n3cc(C(F)F)nc3C)c(-n3nncc3-c3ccc(OC(F)(F)F)cc3)c2)c1` [Example 154, 4′-[4-(difluoromethyl)-2-methyl-1H-imidazol-1-yl]-N-methyl-3′-(5-{4-[(trifluoromethyl)oxy]phenyl}-1H-1,2,3-triazol-1-yl)biphenyl-3-sulfonamide], the pEC50 is 6.28 and the Emax came to 91%.

On to `Cc1nc(C(F)F)cn1-c1ccc(-c2cccc(S(=O)(=O)N(C)C)c2)cc1-n1nncc1-c1ccc(OC(F)(F)F)cc1` [Example 155, 4′-[4-(difluoromethyl)-2-methyl-1H-imidazol-1-yl]-N,N-dimethyl-3′-(5-{4-[(trifluoromethyl)oxy]phenyl}-1H-1,2,3-triazol-1-yl)biphenyl-3-sulfonamide], for which the pEC50 was 6.15 and the Emax was 93%.

Consider `Cc1nc(C(F)F)cn1-c1ccc(-c2cccc(C(C)(C)C(N)=O)c2)cc1-n1nncc1-c1ccc(OC(F)(F)F)cc1` [Example 156, 2-{4′-[4-(difluoromethyl)-2-methyl-1H-imidazol-1-yl]-3′-(5-{4-[(trifluoromethyl)oxy]phenyl}-1H-1,2,3-triazol-1-yl)biphenyl-3-yl}-2-methylpropanamide], for which the pEC50 was 5.79 and the Emax amounted to 93%.

As to `CCS(=O)(=O)c1cccc(-c2ccc(-n3cc(C(F)F)nc3C)c(-n3nncc3-c3ccc(OC(F)(F)F)cc3)c2)c1` [Example 157, 1-{4-[4-(difluoromethyl)-2-methyl-1H-imidazol-1-yl]-3′-(ethylsulfonyl)biphenyl-3-yl}-5-{4-[(trifluoromethyl)oxy]phenyl}-1H-1,2,3-triazole], the pEC50 was 5.95 and the Emax came to 104%.

On to `Cc1nc(C(F)F)cn1-c1ccc(-c2cc(Cl)c(CO)c(S(C)(=O)=O)c2)cc1-n1nncc1-c1ccc(OC(F)(F)F)cc1` [Example 158, {3-chloro-4′-[4-(difluoromethyl)-2-methyl-1H-imidazol-1-yl]-5-(methylsulfonyl)-3′-(5-{4-[(trifluoromethyl)oxy]phenyl}-1H-1,2,3-triazol-1-yl)biphenyl-4-yl}methanol], for which the pEC50 was 5.85 and the Emax worked out at 88%.

For the compound `Cc1nc(C(F)F)cn1-c1ccc(-c2ccc(CO)c(S(C)(=O)=O)c2)cc1-n1nncc1-c1ccc(OC(F)(F)F)cc1` [Example 159, {4′-[4-(difluoromethyl)-2-methyl-1H-imidazol-1-yl]-3-(methylsulfonyl)-3′-(5-{4-[(trifluoromethyl)oxy]phenyl}-1H-1,2,3-triazol-1-yl)biphenyl-4-yl}methanol], the pEC50 was 6.11 and the Emax turned out to be 97%.

With `Cc1nc(C(F)F)cn1-c1ccc(-c2cccc(S(C)(=O)=O)c2)cc1-n1nncc1-c1ccc(Cl)cc1` [Example 162, 5-(4-chlorophenyl)-1-{4-[4-(difluoromethyl)-2-methyl-1H-imidazol-1-yl]-3′-(methylsulfonyl)biphenyl-3-yl}-1H-1,2,3-triazole], the pEC50 was 6.01 and the Emax worked out at 65%.

Take `Cc1nc(C(F)F)cn1-c1ccc(-c2cccc(S(C)(=O)=O)c2)cc1-n1nncc1-c1ccc(Cl)cc1Cl` [Example 163, 5-(2,4-dichlorophenyl)-1-{4-[4-(difluoromethyl)-2-methyl-1H-imidazol-1-yl]-3′-(methylsulfonyl)biphenyl-3-yl}-1H-1,2,3-triazole]: the pEC50 is 5.80 and the Emax is 61%.

Turning to `Cc1nc(C(F)(F)C(C)C)cn1-c1ccc(-c2cccc(S(C)(=O)=O)c2)cc1-n1nncc1-c1ccc(OC(F)(F)F)cc1` [Example 164, 1-{4-[4-(1,1-difluoro-2-methylpropyl)-2-methyl-1H-imidazol-1-yl]-3′-(methylsulfonyl)biphenyl-3-yl}-5-{4-[(trifluoromethyl)oxy]phenyl}-1H-1,2,3-triazole], the pEC50 is 6.69 and the Emax turned out to be 59%.

As to `Cc1nc(C(C)(F)F)cn1-c1ccc(-c2cccc(S(C)(=O)=O)c2)cc1-n1nncc1-c1ccc(OC(F)(F)F)cc1` [Example 165, 1-{4-[4-(1,1-difluoroethyl)-2-methyl-1H-imidazol-1-yl]-3′-(methylsulfonyl)biphenyl-3-yl}-5-{4-[(trifluoromethyl)oxy]phenyl}-1H-1,2,3-triazole], the pEC50 was 6.19 and the Emax was 66%.

In the case of `COc1ccc(-c2cnnn2-c2cc(-c3cccc(S(C)(=O)=O)c3)ccc2-n2cc(C(F)F)nc2C)cc1` [Example 166, 1-{4-[4-(difluoromethyl)-2-methyl-1H-imidazol-1-yl]-3′-(methylsulfonyl)biphenyl-3-yl}-5-[4-(methyloxy)phenyl]-1H-1,2,3-triazole], the pEC50 is 5.78 and the Emax amounted to 78%.

On to `Cc1nc(C(F)F)cn1-c1ccc(-c2cccc(S(C)(=O)=O)c2)cc1-n1nncc1-c1ccc2c(c1)OC(F)(F)O2` [Example 167, 5-(2,2-difluoro-1,3-benzodioxol-5-yl)-1-{4-[4-(difluoromethyl)-2-methyl-1H-imidazol-1-yl]-3′-(methylsulfonyl)biphenyl-3-yl}-1H-1,2,3-triazole], for which the pEC50 is 6.11 and the Emax worked out at 107%.
